In ChEMBL document CHEMBL1155835 (J Med Chem, 2008):

System: not listed separately
Test: Inhibition of hamster liver ALDH2
Parameters: species or system Cricetinae

SMILES | IC50 [nM]
O=c1c(-c2ccc(O)cc2)coc2cc(O)ccc12 [DAIDZEIN] | 9000
O=C(O)CCCCCCCCCCCOc1ccc2c(=O)c(-c3ccc(O)cc3)coc2c1 | 130
O=C(O)CCCCCCCCCOc1ccc2c(=O)c(-c3ccc(O)cc3)coc2c1 | 50
CCCCCCOc1ccc2c(=O)c(-c3ccc(O)cc3)coc2c1 | 1500
O=C(O)CCCCOc1ccc2c(=O)c(-c3ccc(O)cc3)coc2c1 | 100
CCCCCCCCCCCCOc1ccc2c(=O)c(-c3ccc(O)cc3)coc2c1 | > 9000
CCOc1ccc2c(=O)c(-c3ccc(O)cc3)coc2c1 | 80
O=C(O)CCCCCCCOc1ccc2c(=O)c(-c3ccc(O)cc3)coc2c1 | 40
O=C(O)COc1ccc2c(=O)c(-c3ccc(O)cc3)coc2c1 | 1200
O=c1c(-c2ccc(O)cc2)coc2cc(OCCOCCOCCO)ccc12 | 40

Target: T1, Aldehyde dehydrogenase, mitochondrial (Homo sapiens, UniProt P05091)
T1 sequence (P05091 whole entry): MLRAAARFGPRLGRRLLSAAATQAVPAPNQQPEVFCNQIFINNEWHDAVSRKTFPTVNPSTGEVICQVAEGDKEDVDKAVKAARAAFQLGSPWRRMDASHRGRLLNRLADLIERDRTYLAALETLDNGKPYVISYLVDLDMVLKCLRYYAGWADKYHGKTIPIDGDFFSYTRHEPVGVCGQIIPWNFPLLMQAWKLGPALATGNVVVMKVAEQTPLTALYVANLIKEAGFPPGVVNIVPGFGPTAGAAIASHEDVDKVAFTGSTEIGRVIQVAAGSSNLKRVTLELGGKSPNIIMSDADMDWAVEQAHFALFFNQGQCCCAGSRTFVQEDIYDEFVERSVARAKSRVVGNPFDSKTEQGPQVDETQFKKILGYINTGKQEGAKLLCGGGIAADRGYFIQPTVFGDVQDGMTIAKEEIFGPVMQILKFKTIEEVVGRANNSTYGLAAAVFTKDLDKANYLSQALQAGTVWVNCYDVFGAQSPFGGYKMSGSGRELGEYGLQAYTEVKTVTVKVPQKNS
Test: Inhibition of human recombinant ALDH2

SMILES | Ki [nM]
COc1cc(O)c2c(=O)c(-c3ccc(O)cc3)coc2c1 [PRUNETIN] | 450
